Each structure is given as a SMILES string.

Data set [1] can be described thus: Stability study of budesonide HFA solution formulation in anodized aluminium cans at 40° C. and 75% relative humidity. It is filed as physicochemical. As to the method: A formulation for delivering a nominal dose of 200 μg of budesonide per actuation was prepared and filled in anodized aluminium canisters fitted with a metering valve having a 50 μl metering chamber.
A stability study was carried out by storing the formulation in upright (Up) and inverted (Inv) cans at 40° C. and 75% relative humidity. After three months of storage under these conditions the percent recovery of the active ingredient was very good. At the same time, the addition of small quantities of phosphoric acid appears to reduce the main oxidation degradation product, which is the 21-aldehyde content of the budesonide formulation.

A short description of data set [2]: TA 2005 stability in presence of sulphuric acid, upright Teflon-coated cans at 40° C. It is filed as physicochemical. As to conditions: 0.075 M sulphuric acid in a concentration of 0.0018 to 0.0054% w/w. Here is the method: A formulation of 8-hydroxy-5-[(1R)-1-hydroxy-2-[[(1R)-2-(4-methoxyphenyl)-1-methyl ethyl]amino]ethyl]-2(1H)-quinolinone hydrochloride (TA 2005) for delivering a nominal dose of 1 μg of active ingredient per actuation, was prepared with the following formulation: […]
The formulation (120 actuations/canister, overage of 30 actuations) was filled in aluminium canisters having the internal surface coated with Teflon and fitted with a metering valve having a 63 μl metering chamber.
A stability study was carried out by storing the formulation in upright cans at 40° C. The percent recovery of the active ingredient after one month of storage under these conditions is reported in the following: […]

Take `CCCC1O[C@@H]2C[C@H]3[C@@H]4CCC5=CC(=O)C=C[C@]5(C)[C@H]4[C@@H](O)C[C@]3(C)[C@]2(C(=O)CO)O1` (some centres unmarked) [Budesonide, budesonide]: in data set [1], the “effect of small quantities of phosphoric acid on 21-aldehyde content (main oxidation degradation product)” value is “reduce”.

On to `COc1ccc(C[C@@H](C)NC[C@H](O)c2ccc(O)c3[nH]c(=O)ccc23)cc1.Cl` [TA 2005, 8-hydroxy-5-[(1R)-1-hydroxy-2-[[(1R)-2-(4-methoxyphenyl)-1-methylethyl]amino]ethyl]-2(1H)-quinolinone hydrochloride], for which, in data set [2], the chemical stability entry was “improved”.

These data come from patent publication US20060193785A1, “Pharmaceutical aerosol formulations for pressurized metered dose inhalers comprising a sequestering agent” (priority 2005, published 2006).
